Assay results taken from patent US20080182853A1, “Methods of neuroprotection by cyclin-dependent kinase inhibition” (priority 2006, published 2008).

Key:
cortical neurons [1] = details: 5 μM H2O2, 6 h; neutral comet assay; FIG. 2A
Protocol: Single Cell Gel Electrophoresis (Comet assay). DNA damage was assessed using the alkaline or neutral single-cell gel electrophoresis (comet assay) method (Kruman, I. I., et al. 2004. Neuron. 41:549-561; Kruman, I. I., et al. 2002. J Neurosci. 22:1752-176229). We used the neutral comet assay which is specific for detecting DSBs (Wojewodzka, M., et al. 2002. Mutat Res. 518:9-20). Following treatment, neurons were scraped and cell suspensions (˜10,000 cells) were embedded into 0.5% low melting agarose on slides (Trevigen, Gaithersburg, Md.). After treatment with cold lysis buffer (Trevigen) containing 1% Triton X-100 and 10% DMSO, the slides were incubated for 1 h in freshly prepared electrophoresis buffer, 300 mM sodium acetate, 100 mM Tris HCl, pH 8.3 (neutral comet assay) or 300 mM NaOH, 1 mM EDTA, pH>13 (alkaline comet assay). Then electrophoresis was performed at 14V and 60 mA for 1 h (neutral comet assay) or at 25V and 300 mA for 30 min (alkaline comet assay) at 8° C., stained with SYBR green (Trevigen), and analyzed using an Olympus BX51 fluorescent microscope and the comet assay image analysis software (Loats Associates Inc.). […] Images of 50 randomly selected cells were analysed from each slide. […]

cortical neurons [2] = system: cortical neurons
Protocol: Treatment with 1 μM PD 0332991 (obtained from Pfizer) was carried out for 12 h in complete medium; H2O2 was added at the indicated times and doses.
Analysis of neuronal survival and apoptosis. Neuronal viability was assessed by quantifying apoptotic nuclei following the treatments. Cells were fixed and stained with DNA-binding dye propidium iodide (PI) (10 μg/ml; Sigma), and the percentage of cells with apoptotic nuclei was calculated as described previously (Kruman, I. I., et al. 2002. J. Neurosci. 22:1752-1762; Tenneti, L. and S. A. Lipton. 2000. J Neurochem. 74:134-142). Nuclear staining was viewed and photographed using a Zeiss fluorescence microscope. Apoptosis was also determined by immunoblot analysis for activated (cleaved) caspase-3 (polyclonal; 1 μg/ml; Upstate Cell Signaling Solutions), cleaved Mcm3 (polyclonal, 1:200; Santa-Cruz), Mcm2 (BM28; monoclonal; 1:200; BD Biosciences), and fractin (cleaved β-actin; 1:3000; Chemicon) in cellular extracts from corresponding neuronal 5 cultures.

CDK4 and CDK6 = details: Fry et al. 2004; cited from earlier work
pRb phosphorylation = pRb phosphorylation by Western blot in cortical neurons; format: cell-based, rat; details: 12 h pretreatment with 1 μM PD 0332991, then 100 μM H2O2 for 6 h; FIG. 4A
Protocol: Immunoblot analyses. For total cell lysates, cortical neurons were lysed in ice-cold buffer consisting of 63 mM Tris, 2 mM EDTA, 2 mM EGTA, 2% sodium dodecyl sulfate, 10% glycerol, and a protease inhibitor cocktail (Sigma), pH 6.0. For the preparation of nuclear lysates (for analysis of cyclin D1 and γ-H2AX), cortical neurons were lysed in ice-cold buffer containing protease inhibitor cocktail (Sigma) and incubated with hydrochloric acid (0.2 M) on ice for 30 min.
As a loading control we used anti-β-actin or anti-glyceraldehyde-3-phosphate dehydrogenase (GAPDH) antibodies.
Protein bands were visualized with horseradish peroxidase-conjugated secondary antibodies (1:3000; Jackson Immunological Research Laboratories Inc.) and enhanced using chemiluminescence (ECL kit, Amersham Corp.). Densitometric analysis of the blots were performed using the Kodak software ID 3.5.3 USB, and the intensity of the signal (normalized to the β-actin signals) was expressed as a ratio of the control signals.

tumor = details: mice; cited from earlier work
primary cortical neurons = assay: H2O2-induced apoptosis in cultured cortical neurons (apoptotic nuclei count); format: cell-based, rat; details: 12 h pretreatment with 1 μM PD 0332991, then 100 μM H2O2 for 18 h; Hoechst 33342; FIG. 4B
Protocol: All experiments involving the use of animals were approved by the IACUC at the Georgetown University Medical Center, Washington, D.C. Primary cortical cell cultures were established from E18 Sprague-Dawley rats obtained from Jackson Laboratories.
Following dissociation by mild trypsinization and trituration, cells were seeded onto plastic dishes or chamber slides precoated with 0.025 μg/ml poly-L-lysine, at a density of 1.3×10^3 neurons/mm^2 in Neurobasal medium containing B-27 supplement, 1 mM HEPES, 2 mM […] and 0.001% gentamycin sulfate; fresh medium was replaced after 30 minutes.
Analysis of neuronal survival and apoptosis.

neuronal apoptosis = details: in vitro; cited from earlier work
ischemia models = details: in vivo; cited from earlier work

For OO [H2O2, hydrogen peroxide], the “DNA damage (comet tails)” value (cortical neurons [1]) was “significant increase of DNA damage”, the “apoptosis of cortical neurons” value (cortical neurons [2]; 5 μM H2O2, by 24 h or 48 h) was “did not induce apoptosis” and the “apoptotic death of cortical neurons” value (cortical neurons [2]; 100 μM H2O2, FIG. 1) was “significant apoptotic death beginning by 9 h”.

For CC(=O)c1c(C)c2cnc(Nc3ccc(N4CCNCC4)cn3)nc2n(C2CCCC2)c1=O [PD 0332991], the “specificity as inhibitor of CDK4 and CDK6” value (CDK4 and CDK6) is given as “highly specific inhibitor of CDK4 and CDK6”, the “phosphorylation of pRb” value (pRb phosphorylation) is given as “down-regulates phosphorylation of pRb” and the tumor regression (tumor) is given as “effective in causing tumor regression in mice”. The extent of apoptosis (primary cortical neurons) was “significant reduction in the extent of apoptosis”.

For CN1CC[C@H](c2c(O)cc(O)c3c(=O)cc(-c4ccccc4Cl)oc23)[C@H](O)C1 [flavopiridol], the “prevention of neuronal apoptosis” value (neuronal apoptosis) is given as “very potent in preventing neuronal apoptosis in vitro” and the “protection in ischemia models” value (ischemia models) is given as “protective”.
